Where “and” joins values, the source holds several entries; their conditions need not be identical. Identical values can stand only once.
Tests used:
[1] = tested on: SF-295 glioma cells; assay: Cell viability by violet crystal staining, 72 hours; type: cell-based, human; conditions: for IC50: SF-295, 72 hours
Experimental: FIG. 14. Effect of 2OHOA sodium salt, OA and C17:1n-9 sodium salt on cell viability and proliferation of glioma cells. […] Viability was determined by violet crystal staining.
(§1) In order to evaluate the antiproliferative effect of C17:1n-9, its IC50, which corresponds to the amount of a compound needed to reduce cell viability in vitro by 50%, as well as its effect on the regulation of proteins involved in the mechanism of action of 2OHOA, were determined. […] Upon completion of treatment, IC50 was determined by violet crystal staining technique. […] The IC50 of 2OHOA was 1000 μM for non-tumor cells, MRC-5 and astrocytes.

[2] = tested on: MRC-5 (human fibroblasts); assay: as above; type: cell-based
Experimental: (§2) FIG. 15. Effect of 2OHOA sodium salt, C17:1n-9 sodium salt, and OA on cell viability and proliferation of non-tumor cells. Non-tumor cell viability curves (A1-A3) MRC-5 (human fibroblasts); and (B1-B3) mouse astrocytes treated with increasing doses of 2OHOA sodium salt (0-1000 μM) (A1 and B1); OA (0-300 μM) (A2 and B2); and C17:1n-9 sodium salt (0-300 μM) (A3 and B3) for 72 hours. Viability was determined by violet crystal staining.
as §1

[3] = tested on: mouse astrocytes; assay: as above; type: cell-based; conditions: Astrocyte, Astrocytes non-tumor cells
Experimental: as §2, §1

[4] = tested on: SF-295; assay: Cell survival by trypan blue vital exclusion staining, 2OHOA and oxythiamine; type: cell-based, human
Experimental: FIG. 18. Effect of metabolite C17:1n-9 on the action of 2OHOA. […] Cell viability was determined by vital exclusion staining with trypan blue.
(§3) To study whether the metabolite C17:1n-9 can participate in the action of 2OHOA, the effect of pre-incubation with oxythiamine on cell survival and 2OHOA-regulated proteins was studied. To do this, the cell survival of different glioma and non-tumor cell lines treated with 2OHOA (400 μM, 72 hours) and pre-incubated or not with 2 mM […] (90 minutes) was analyzed by counting the cells with the vital exclusion stain with trypan blue. In addition, Western-blot 2OHOA-modulated proteins were studied. In glioma cells, a significant decrease in cell survival was observed after incubation with 2 mM oxythiamine for 72 hours.

[5] = tested on: BIP, CHOP, cJun phosphorylation, phosphorylation of Akt, cyclin D3; assay: Western Blot of proliferation and death markers in glioma and non-tumor cell lines; type: cell-based; conditions: 200 μM C17:1n-9, 200 μM OA or 400 μM 2OHOA, 72 hours
Experimental: FIG. 16. Analysis of the effect of different fatty acids on markers of proliferation and death in different cell lines.
as §3

[6] = Fatty acids in rat plasma after oral 2OHOA sodium salt (gas chromatography); type: in vivo; conditions: for Maximum plasma concentration: 2 hours after oral 2OHOA sodium salt 2 g/Kg; for Maximum plasma concentration / Time of maximum plasma concentration: acute treatment
Experimental: FIG. 20. […] Statistical significance is determined with a Wilcoxon test (*p<0.05 and **p<0.01 with respect to baseline levels at 0 hours; $p<0.05 and $$p<0.01 with respect to 2OHOA fatty acid levels).
FIG. 21. […] Statistical significance is determined by a Wilcoxon test (*p<0.05 and **p<0.01 with respect to baseline levels at 0 hours; $p<0.05 and $$p<0.01 with respect to 2OHOA fatty acid levels).
For the present study, 2 g of 2OHOA/Kg sodium salt was administered to rats 12-14 weeks of age orally for 15 days. Subsequently, plasma samples were extracted at different times (0, 1, 2, 3, 4, 6, 8 and 24 h) from day 1 (acute treatment) and 15 (chronic treatment). Finally, the fatty acid profile in plasma samples was analyzed by gas chromatography.

[7] = Fatty acids in plasma of patients with advanced glioma treated with 2OHOA sodium salt; type: in vivo, human; conditions: for Time of peak plasma levels: first day
Experimental: FIG. 24. Analysis of composition in fatty acids in human patients with advanced glioma. (A) Representative chromatogram of the fatty acid composition of a patient with glioma responsive to treatment with 2OHOA sodium salt (12 g/day, 21 days) and determined in plasma samples obtained at different treatment times (0, 4 and 360 hours, 15 days) by gas chromatography. […] The C17:0 margaric acid in the chromatograms was quantified as internal control.
Plasma samples were obtained at different times (0, 2, 4, 6, 8 hours and after 8, 15, 21 and 28 days after treatment with 2OHOA) and were subsequently given for fatty acid analysis using the gas chromatography technique.

[8] = tested on: SF-295 glioma cells; conditions: human, 24 h, 400 μM
Description: (§4) Analysis of the composition of fatty acids in different glioma and non-tumor cell lines after treatment with 2OHOA sodium salt. […] The black bar corresponds to the concentration of each fatty acid in the control, and the white bar corresponds to the concentration of the fatty acid after treatment with 2OHOA sodium salt. C17:0 margaric acid is included as an internal control. The columns show the mean±SEM of three independent experiments expressed in nmoles and normalized per mg of protein. Statistical significance is determined with a Student's t-test (**p<0.01, ***p<0.001 with respect to the control).

[9] = tested on: MRC-5 (human fibroblasts); conditions: 24 h, 400 μM
Description: as §4

[10] = tested on: mouse astrocytes; conditions: 24 h, 400 μM
Description: as §4

[11] = defined in preclinical studies; cited from earlier work
[12] = tested on: MRC-5 (human fibroblasts); assay: Fatty acid composition by gas chromatography after treatment with 2OHOA; conditions: MRC-5, 2OHOA 400 μM for 24 hours
Description: as §4

[13] = tested on: mouse astrocytes; assay: as above; conditions: 2OHOA 400 μM for 24 hours
Description: as §4

[14] = patients, 12 g/day 2OHOA sodium salt

CCCCCCCC/C=C\CCCCCCC(O)C(=O)O (stereo not shown) [2OHOA, 2-hydroxyoleic acid]
IC50 ([1]; Homo sapiens): 399 ± 11.5 µM | IC50 of 2OHOA relative to that of metabolite C17:1n-9 ([1]; SF-295): 1.60 times | IC50 of 2OHOA relative to that of non-hydroxy analogue OA ([1]; SF-295): 1.56 times | IC50 ([2]; Homo sapiens, MRC5, MRC-5 non-tumor cells): > 1000 µM | IC50 [3]: > 1000 µM | Cell death ([4]; SF-295, 2OHOA 400 μM, 72 hours): 23.97±1.25% | Cell death ([4]; SF-295, 2OHOA combined with 2 mM oxythiamine): 10.85±0.58% | Recovery in cell viability ([4]; SF-295, 2OHOA combined with 2 mM oxythiamine vs 2OHOA alone): 17.25% | Effect on signaling proteins (Western Blot) [5]: increased levels of BIP, CHOP and cJun phosphorylation and decreased phosphorylation of Akt and cyclin D3 levels | Maximum plasma concentration [6]: 26.23±5.79 nmol/ml plasma | Time of maximum plasma concentration ([6]; oral 2OHOA sodium salt 2 g/Kg): 2 h | concentration at 8 h ([6]; plasma, oral 2OHOA sodium salt 2 g/Kg, read-out: Plasma level after 8 hours): 7.12 ± 1.56 µM | concentration at 0 h ([6]; plasma, oral 2OHOA sodium salt 2 g/Kg, read-out: Plasma level at 0 hours (initial levels, prior to administration)): 1.22 ± 0.33 µM | concentration at 24 h ([6]; plasma, oral 2OHOA sodium salt 2 g/Kg, read-out: Plasma level at 24 hours (trough values)): 2.8 ± 0.69 µM | concentration at 4 h ([7]; human, plasma, oral, patients (responders and non-responders), 12 g/day 2OHOA sodium salt, read-out: Plasma level 4 hours after the first intake): 53.1 ± 6.52 µM | concentration at 8 h ([7]; human, plasma, oral, patients, 12 g/day 2OHOA sodium salt, read-out: Plasma level 8 hours after treatment): 25.4 ± 3.99 µM | concentration at 360 h ([7]; human, plasma, oral, patients, 12 g/day 2OHOA sodium salt, read-out: Plasma level after 15 days (360 hours) of treatment): 185 ± 25.6 µM | concentration at 192 h ([7]; human, plasma, oral, patients, 12 g/day 2OHOA sodium salt, read-out: Plasma level at 8 days of treatment (192 hours)): 25.4 ± 3.99 µM | Plasma level after 15 days (360 hours) of treatment [7, 14]: 141.10±16.35 nmol/ml plasma | Plasma level at 8 days of treatment (192 hours) [7, 14]: 25.39±3.99 nmol/ml plasma | Plasma level at 21 days of treatment [7, 14]: 184.70±25.60 nmol/ml plasma | Time of peak plasma levels [7, 14]: 4 h | Level of the fatty acid in cells after treatment with 2OHOA [8]: 9.21 nmol/mg | 2OHOA accumulated more than its metabolite C17:1n-9 [9]: 46% | 2OHOA accumulated more than its metabolite C17:1n-9 [10]: 38.27% | Maximum tolerated dose [11]: 2000 mg/kg

CCCCCCCC/C=C\CCCCCCC(=O)O [C17:1n-9, 8Z-heptadecenoic acid]
IC50 [1]: 249 ± 6.02 µM | IC50 ([2]; MRC-5 non-tumor cells): 248 ± 7.28 µM | Effect on signaling proteins (Western Blot) [5]: did not produce changes in any of these proteins | Maximum plasma concentration [6]: 60.47±6.53 nmol/ml plasma | Plasma level after 8 hours ([6]; oral 2OHOA sodium salt 2 g/Kg): 23.31±5.18 nmol/mL plasma | Plasma level at 0 hours (initial levels, prior to administration) ([6]; oral 2OHOA sodium salt 2 g/Kg): 8.45±2.52 nmol/ml plasma | Plasma level at 24 hours (trough values) ([6]; oral 2OHOA sodium salt 2 g/Kg): 14.03±2.20 nmol/ml plasma and 14.03±2.21 nmol/ml plasma | Time of maximum plasma concentration ([6]; oral 2OHOA sodium salt 2 g/Kg): 2 h | Plasma level 4 hours after the first intake ([7]; patients (responders and non-responders), 12 g/day 2OHOA sodium salt): 122.80±10.61 nmol/ml of plasma | C17:1n-9 plasma levels relative to 2OHOA ([7]; patients at 21 days of treatment): 1.90 times | C17:1n-9 plasma levels relative to 2OHOA ([7]; patients treated for 8 days): 3.66 times | C17:1n-9 plasma levels relative to 2OHOA ([7]; patients treated for 15 days): 2.20 times | Plasma level 8 hours after treatment [7, 14]: 92.89±9.39 nmol/ml of plasma | Plasma level at 21 days of treatment [7, 14]: 366.9±72.47 nmol/ml plasma | Time of peak plasma levels [7, 14]: 4 h | Level of the fatty acid in cells after treatment with 2OHOA [12]: 14.00 nmol/mg | Level of the fatty acid in cells after treatment with 2OHOA [13]: 7.58 ± 0.70 nmol/mg and 7.58 nmol/mg

Source: patent US20230097753A1, “ALPHA-HYDROXYLATED FATTY-ACID METABOLITES, MEDICAL USES AND USE AS BIOMARKERS” (UNIVERSITAT DE LES ILLES BALEARS, priority 2020, published 2023)
